Experimental data from US11072634B2, “Inhibitors of transglutaminases” (Zedira GmbH, priority 2016, dated 2021).
Like-named read-outs stand apart in the source and are kept apart here. *1 amine or outer side, *2 acyl side, *3 side chain or, on linkers, in order; H or OH if unused. Where a SMILES comes first, the peptide text is derived from it. [ ]: non-standard residue; d: D form. The star is where a group is joined. Nle(5,6-dioxo,6-NHMe) = CNC(=O)C(=O)CC[C@H](N)C(=O)O; X4 = O=C(CC[C@H](N[*:1])C(=O)[*:2])C(=O)NC1CC1; Isonicotinoyl(3-COOH) = O=C(O)c1cnccc1C(=O)*; X5 = NC(=O)C(=O)CC[C@H](N[*:1])C(=O)[*:2]; Pro(4-oxo) = O=C1CN[C@H](C(=O)O)C1; Chg = N[C@H](C(=O)O)C1CCCCC1; Tle = CC(C)(C)[C@H](N)C(=O)O; Nle = CCCC[C@H](N)C(=O)O; X3 = Cc1nc(C(=O)*)cs1

Key:
Type in all cases: biochemical
[1] = target: T1, recombinant human tissue transglutaminase (rhTG2) (Homo sapiens, UniProt P21980); assay: Inhibition of rec. human tissue transglutaminase (fluorescence, Abz-APE(CAD-DNP)QEA-OH); conditions: Table 1, TG2 inhibitors
T1 construct: purchased Zedira 1022 (so in the source); T022)
T1 sequence (P21980 1-687): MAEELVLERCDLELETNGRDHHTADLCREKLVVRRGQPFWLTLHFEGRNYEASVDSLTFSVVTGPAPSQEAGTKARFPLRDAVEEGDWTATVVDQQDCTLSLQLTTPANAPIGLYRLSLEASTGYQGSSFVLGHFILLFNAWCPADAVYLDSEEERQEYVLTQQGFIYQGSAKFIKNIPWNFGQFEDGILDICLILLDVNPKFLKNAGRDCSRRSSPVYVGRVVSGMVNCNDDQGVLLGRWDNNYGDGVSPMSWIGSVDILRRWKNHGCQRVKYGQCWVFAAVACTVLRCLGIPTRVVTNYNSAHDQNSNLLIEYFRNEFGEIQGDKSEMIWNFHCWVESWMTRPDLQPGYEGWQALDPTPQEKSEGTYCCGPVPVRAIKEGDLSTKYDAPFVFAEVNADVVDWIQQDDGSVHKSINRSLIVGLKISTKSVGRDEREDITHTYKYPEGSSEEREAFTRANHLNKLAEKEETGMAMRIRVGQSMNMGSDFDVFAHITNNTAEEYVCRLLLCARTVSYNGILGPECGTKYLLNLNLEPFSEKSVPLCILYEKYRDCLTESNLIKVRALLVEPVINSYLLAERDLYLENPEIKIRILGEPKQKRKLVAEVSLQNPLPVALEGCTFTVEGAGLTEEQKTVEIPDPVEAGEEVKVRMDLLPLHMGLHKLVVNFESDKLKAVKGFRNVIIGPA
How it was run: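 His6-rhTG2 in a master mix (50 mM Tris-HCl pH 7.4, 7.5 mM CaCl2, 150 mM NaCl, 5 mM DTT, 13.4 mM glycine methylester, 50 μM Abz-APE(CAD-DNP)QEA-OH) was added to serially diluted inhibitor. Fluorescence (ex 313/em 418 nm) was followed at 37 °C for 20 min. IC50 came from the 10–20 min slope relative to the 2% DMSO control.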

[2] = target: T2, recombinant human factor XIII A-subunit (rhFXIII-A, plasma transglutaminase) (Homo sapiens, UniProt P00488); assay: Inhibition of rec. human coagulation factor XIII (fluorescence, Abz-NE(CAD-DNP)EQVSPLILLK-OH)
T2 construct: His6; purchased Zedira 1027 (so in the source); T027)
T2 sequence (P00488 39-732 limits assumed): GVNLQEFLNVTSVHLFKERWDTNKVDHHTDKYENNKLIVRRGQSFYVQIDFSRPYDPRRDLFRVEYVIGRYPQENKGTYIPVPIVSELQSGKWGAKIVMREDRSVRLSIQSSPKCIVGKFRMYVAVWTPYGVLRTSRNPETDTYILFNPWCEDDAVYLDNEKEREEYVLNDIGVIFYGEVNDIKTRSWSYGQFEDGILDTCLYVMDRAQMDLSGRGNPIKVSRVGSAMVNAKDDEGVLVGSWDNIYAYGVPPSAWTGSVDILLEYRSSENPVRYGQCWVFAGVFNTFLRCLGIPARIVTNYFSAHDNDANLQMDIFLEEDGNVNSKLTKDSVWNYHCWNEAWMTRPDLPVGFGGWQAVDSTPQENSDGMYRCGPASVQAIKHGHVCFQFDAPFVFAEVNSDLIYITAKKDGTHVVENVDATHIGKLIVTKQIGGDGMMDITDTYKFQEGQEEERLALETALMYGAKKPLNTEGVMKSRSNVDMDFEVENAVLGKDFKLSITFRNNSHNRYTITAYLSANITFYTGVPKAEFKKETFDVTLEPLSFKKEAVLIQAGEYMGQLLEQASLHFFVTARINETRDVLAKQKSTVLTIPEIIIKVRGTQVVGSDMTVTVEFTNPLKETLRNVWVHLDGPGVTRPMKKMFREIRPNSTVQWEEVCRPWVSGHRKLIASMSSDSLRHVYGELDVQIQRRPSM
Experimental: Method for Inhibition Studies of Rec. Human Coagulation Factor XIII (Plasma Transglutaminase, rhFXIII-A)
(§1) 50 μg lyophilized His-tagged recombinant human factor XIII A-subunit (His6-rhFXIII, Zedira product 1027) is reconstituted in H2O (volume depends on original volume before lyophilization) resulting in a buffer containing 20 mM Tris-HCl, 150 mM NaCl, 1 mM EDTA, 1 mM DTT, 189 mg/ml maltodextrin, pH=7.5. The rhFXIII stock solution is diluted in buffer (50 mM Tris-HCl, 7.5 mM CaCl2, 150 mM NaCl, pH=7.4) to give a working solution of 59 U/ml (based on the amine-incorporation activity measured using transglutaminase activity assay #1036 (Zedira GmbH), described below).
(§2) A 10 mM inhibitor stock solution is prepared in DMSO, and from this a serial 1:2-fold dilution series is prepared also in DMSO. Each of the initial dilutions is subsequently diluted 1:50-fold with buffer (50 mM Tris-HCl, 7.5 mM CaCl2, 150 mM NaCl, pH=7.4) to yield the final working dilutions containing 2% (v/v) DMSO.
(§3) 15 μl of inhibitor working dilution are added per well of a 96 well microtiter plate. As control, 15 μl of a 2% (v/v) DMSO solution prepared using the buffer mentioned above are added per well.
(§4) 480 μl of His6-rhFXIII working solution and 120 μl human alpha thrombin (0.5 NIH units/μl) are added to 10.8 ml assay buffer (50 mM Tris-HCl, 7.5 mM CaCl2, 150 mM NaCl, 5 mM DTT, 13.4 mM glycine methylester, 50 μM Abz-NE(CAD-DNP)EQVSPLILLK-OH, (Zedira product A101; patent No.: EP 1781807B1), pH=7.4). From this master-mix solution, 285 μl are added per well containing the inhibitor. Increase in fluorescence is measured using […] and λem=418 nm at 37° C. for 35 min. A slope of the increase in fluorescence between 20 and 30 min is calculated for determination of the IC50 value (inhibitor concentration at which 50% of the initial FXIII activity is blocked).
(§5) Analysis of enzymatic activity is performed by calculation of the slope of an increase in fluorescence intensity. IC50 values are calculated by plotting the enzymatic activity (as percentage from control containing 2% DMSO instead of inhibitor) against the inhibitor concentration. IC50 is defined as the inhibitor concentration blocking 50%) of initial enzyme activity.

TG2 = target: T3, TG2 (Homo sapiens, UniProt P21980); assay: FXIII assay format using TG2 instead of FXIII (selectivity of FXIIIa blockers)
T3 sequence (P21980 1-687): T1 sequence (P21980 1-687)
Experimental: as §1, §2, §3, §4
This assay was also used to determine selectivity of inhibitors preferentially blocking FXIIIa by using TG2 instead of FXIII.
as §5

[3] = Table 1, selectivity with respect to FXIII, read-out: IC50 FXIII
[4] = Table 3, FXIII inhibitors, read-out: IC50 FXIII
[5] = Table 3, selectivity with respect to TG2, read-out: IC50 TG2

IC50 [1] | IC50 [2, 3] | IC50 [2, 4] | IC50 (TG2; [5]) | SMILES | also measured
0.05 µM | > 100 µM | – | – | CCC(CC)CNC(=O)Cn1cccc(NC(=O)[C@H](CCC(=O)C(=O)NC)NC(=O)c2cncn2C)c1=O [Compound E16, (S)—N1-(1-(2-(2-ethylbutylamino)-2-oxoethyl)-2-oxo-1,2-dihydropyridin-3-yl)-N6-methyl-2-(1-methyl-1H-imidazole-5-carboxamido)-5-oxonexanediamide] | –
– | – | 2.45 µM | 0.2 µM | CCCC[C@H](NC(=O)[C@H](CCC(=O)C(=O)NC)NC(=O)CNC(C)=O)C(=O)N[C@H](C(=O)N[C@@H](CC(C)C)C(=O)N1CCC[C@H]1C(=O)N[C@@H](Cc1c[nH]c2ccccc12)C(N)=O)[C@@H](C)CC [Compound E34, (S)-2-(2-acetamidoacetamido)-N1-((S)-1-((2S,3S)-1-((S)-1-((S)-2-((S)-1-amino-3-(1H-indol-3-yl)-1-oxopropan-2-ylcarbamoyl)pyrrolidin-1-yl)-4-methyl-1-oxopentan-2-ylamino)-3-methyl-1-oxopentan-2-ylamino)-1-oxohexan-2-yl)-N6-methyl-5-oxohexanediamide] (Ac-G[Nle(5,6-dioxo,6-NHMe)][Nle]ILPW-NH2) | –
– | – | 2.65 µM | 1 µM | Cc1nc(C(=O)N[C@@H](CCC(=O)C(=O)NC2CC2)C(=O)N[C@H](C(=O)N2CC(=O)C[C@H]2C(=O)N[C@H](C(=O)N[C@H](C(N)=O)C2CCCCC2)C2CCCCC2)C(C)(C)C)cs1 [Compound E32, (S)—N1-((S)-1-((S)-2-((S)-2-((S)-2-amino-1-cyclohexyl-2-oxoethylamino)-1-cyclohexyl-2-oxoethylcarbamoyl)-4-oxopyrrolidin-1-yl)-3,3-dimethyl-1-oxobutan-2-yl)-N6-cyclopropyl-2-(2-methylthiazole-4-carboxamido)-5-oxohexanediamide] (X3-[X4][Tle][Pro(4-oxo)][Chg][Chg]-NH2) | –
– | – | – | – | CCCC(NC(=O)C1C2C(CN1C(=O)C(CC1CC1)NC(=O)C(CCC(=O)C(N)=O)NC(=O)c1cc(C(=O)O)cc([N+](=O)[O-])c1)C2(C)C)C(=O)N1CCCC1(C)C(=O)NC(C)COc1c(C)cccc1C [Compound E10, 3-((2S)-6-amino-1-((2S)-3-cyclopropyl-1-((1R,2S)-2-((2S)-1-((2S)-2-(1-(2,6-dimethylphenoxy)propan-2-ylcarbamoyl)-2-methylpyrrolidin-1-yl)-1-oxopentan-2-ylcarbamoyl)-6,6-dimethyl-3-azabicyclo[3.1.0]hexan-3-yl)-1-oxopropan-2-ylamino)-1,5,6-trioxonexan-2-ylcarbamoyl)-5-nitrobenzoic acid] | IC50 [2]: 0.15 µM; IC50 (TG2): 0.1 µM
– | – | 0.15 µM | 0.1 µM | CCCC[C@H](NC(=O)[C@H](CCC(=O)C(N)=O)NC(=O)[C@H](CC(=O)O)NC(C)=O)C(=O)N[C@@H](CCCC)C(=O)N[C@@H](CC(C)C)C(=O)N1CCC[C@H]1C(=O)N[C@@H](Cc1c[nH]c2ccccc12)C(=O)N1CCC[C@H]1C(=O)O [Compound E08, (S)-1-((S)-2-((S)-1-((4R,7S,10S,13S,16S)-7-(4-amino-3,4-dioxobutyl)-10, -dibutyl-4-(carboxymethyl)-18-methyl-2,5,8,11,14-pentaoxo-3,6,9,12,15-pentaazanonadecanecarbonyl)pyrrolidine-2-carboxamido)-3-(1H-indol-3-yl)propanoyl)pyrrolidine-2-carboxylic acid] (Ac-D[X5][Nle][Nle]LPWP-OH) | –
0.6 µM | > 100 µM | – | – | COC(=O)[C@H](CC(C)C)NC(=O)[C@@H]1CCCN1C(=O)[C@@H](NC(=O)[C@H](CCC(=O)C(N)=O)NC(C)=O)C(C)C [Compound E01, (S)-methyl 2-((S)-1-((S)-2-((S)-2-acetamido-6-amino-5,6-dioxohexanamido)-3-methylbutanoyl)pyrrolidine-2-carboxamido)-4-methylpentanoate] | –
– | – | 0.275 µM | – | CC(C)(C)[C@H](NC(=O)[C@H](CCC(=O)C(=O)NC1CC1)NC(=O)c1ccncc1C(=O)O)C(=O)N1CC(=O)C[C@H]1C(=O)N[C@H](C(=O)N[C@H](C(N)=O)C1CCCCC1)C1CCCCC1 [Compound E28, 4-((S)-1-((S)-1-((S)-2-((S)-2-((S)-2-amino-1-cyclohexyl-2-oxoethylamino)-1-cyclo-hexyl-2-oxoethylcarbamoyl)-4-oxopyrrolidin-1-yl)-3,3-dimethyl-1-oxobutan-2-yl-amino)-6-(cyclopropylamino)-1,5,6-trioxohexan-2-ylcarbamoyl)nicotinic acid] ({Isonicotinoyl(3-COOH)}-[X4][Tle][Pro(4-oxo)][Chg][Chg]-NH2) | –
0.1 µM | > 100 µM | – | – | CCC(CC)CNC(=O)Cn1cccc(NC(=O)[C@H](CCC(=O)C(N)=O)NC(=O)c2cncn2C)c1=O [Compound E04, (S)—N1-(1-(2-(2-ethylbutylamino)-2-oxoethyl)-2-oxo-1,2-dihydropyridin-3-yl)-2-(1-methyl-1H-imidazole-5-carboxamido)-5-oxohexanediamide] | –
0.15 µM | > 100 µM | – | – | Cc1nc(Br)sc1C(=O)N[C@@H](CCC(=O)C(N)=O)C(=O)Nc1cccn(CC(=O)NCCC(C)C)c1=O [Compound E05, (S)-2-(2-bromo-4-methylthiazole-5-carboxamido)-N1-(1-(2-(isopentylamino)-2-oxoethyl)-2-oxo-1,2-dihydropyridin-3-yl)-5-oxohexanediamide] | –
0.75 µM | > 100 µM | – | – | CC[C@@H](C)[C@H](NC(=O)[C@H](CCC(N)=O)NC(=O)[C@H](CCC(=O)C(N)=O)NC(C)=O)C(=O)N[C@H](C(N)=O)C(C)C [Compound E03, (S)-2-acetamido-N1-((S)-5-amino-1-((2S,3R)-1-((S)-1-amino-3-methyl-1-oxobutan-2-ylamino)-3-methyl-1-oxopentan-2-ylamino)-1,5-dioxopentan-2-yl)-5-oxohexanediamide] | –
